# Reference: patent publication US9265795B2, “Cellular compositions for use in therapy” (RENEURON LIMITED, priority 2008, dated 2016)
# Tested on: neural stem cell line, CTX0E03
# Test: Hypothermic / ambient shelf-life viability studies (trypan blue exclusion)
# Assay type: cell-based, human
# Conditions: in saline solution at ambient temperature
# Method: Cultures of cells were expanded in T-flasks until 70 to 90% confluent. The spent medium was aspirated and then the cell monolayer washed with HBSS without magnesium or calcium ions (Invitrogen). The wash was aspirated and then the cells dissociated with recombinant bovine trypsin (Lonza TrypZean/EDTA) for 5 minutes at 37° C. The dissociated cell suspension was mixed with a trypsin inhibitor solution (0.55 mg/ml soybean trypsin inhibitor [Sigma], 1% HSA [Grifols], 25 U/ml benzon nuclease [VWR] in DMEM:F12 [Invitrogen]) and centrifuged for 5 minutes at ˜500×g. The supernatant was aspirated and the cell pellet washed in 50% HypoThermosol®-FRS (BioLife Solutions, Inc) in DMEM:F12 followed by centrifugation at ˜500×g for 5 minutes. The cell pellet was then suspended in HypoThermosol®-FRS at a concentration of 40,000 to 60,000 cells/μl. […]
# Shelf-life studies have assessed the viability of the therapeutic and commercially manufactured neural stem cell line, CTX0E03 (Pollock et al., 2006), formulated in saline or using the method described in this invention using HTS-FRS. […]
# Samples of cells were mixed 1:1 with 0.4% Trypan blue (Sigma) and loaded onto a haemocytometer. […] The viability and concentration of the sample is determined by counting the cells within a grid of the haemocytometer using 10× objective phase-contrast microscopy.
smiles,measurement,value
Cc1c(C)c2c(c(C)c1O)CCC(C)(C(=O)O)O2 (stereo not shown) [Trolox],time neural stem cells are preserved,2 days
